The values that follow come from ChEMBL document CHEMBL1138169, “Oxadiazole derivatives as a novel class of antimitotic agents: Synthesis, inhibition of tubulin polymerization, and activity in tumor cell lines” (Bioorg Med Chem Lett, 2006).

Molecules are shown by their SMILES.

Series [1] deals with Tubulin. The series can be described thus: Inhibition of tubulin polymerization. In kind it is functional, Homo sapiens.
The subject of a further series is A-431. The series can be described thus: Cell cycle arrest in A431 cells by accumulation at G2/M phase. In kind it is functional, cell-based. Conditions: Homo sapiens.
The target of series [2] is Tubulin. The series can be described thus: Displacement of [3H]colchicine from tubulin at 65 nM. In kind it is protein-complex assay, Homo sapiens. For orientation: In a radioligand displacement assay an active substance lowers the binding of a labelled ligand.
Series [3] in a line: AUC (0-4 h) in mouse at 60 mg/kg, po. Details: time < 4 hr, dose 60 mg/kg, route oral. The series is classed as ADME, organism-based. Particulars: plasma.
A short description of series [4]: Cmax in mouse at 60 mg/kg, ip. In kind it is ADME, organism-based. Also on record: dose 60 mg/kg, route intraperitoneal. Particulars: in vivo.
The test system of another series is NCI/ADR-RES. The series can be described thus: Cell cycle arrest in NCI/ADR (MDR) cells by accumulation at G2/M phase. In kind it is functional, cell-based. Particulars: Homo sapiens.
Series [5] in a line: Half life in mouse at 60 mg/kg, po. In kind it is ADME, organism-based. Details: dose 60 mg/kg, route oral. Conditions: in vivo.
Series [6] can be described thus: Cmax in mouse at 60 mg/kg, po. In kind it is ADME, organism-based. Conditions: in vivo. Also on record: dose 60 mg/kg, route oral.
Series [7] can be described thus: AUC (0-4 h) in mouse at 60 mg/kg, ip. In kind it is ADME, organism-based. Details: time < 4 hr, dose 60 mg/kg, route intraperitoneal. Particulars: plasma.
Series [8] is described as follows: Half life in mouse at 60 mg/kg, ip. Particulars: in vivo. Details: dose 60 mg/kg, route intraperitoneal. The series is classed as ADME, organism-based.

As for `Cc1ccc(-c2nnc(Nc3ccc4c(c3)OCCO4)o2)c(NCc2ccccn2)n1`, the midpoint of inhibition at Tubulin [1], the IC50, lay at 2.4 µM. Moreover, a half-maximal effect in the series with A-431 (EC50) was put at 0.099 µM.

Turning to `c1coc(CNc2ncccc2-c2nnc(Nc3ccc4c(c3)OCO4)o2)c1`, the IC50 (usually the point on the concentration scale where inhibition reaches its midpoint) at Tubulin [1] came to 4.9 µM. Further, the response in the series on A-431 was half-maximal at 0.13 µM (EC50).

In the case of `c1coc(CNc2ncccc2-c2nnc(Nc3ccc4c(c3)OCCO4)o2)c1`, half-maximal inhibition on Tubulin [1] (IC50) required 2 µM. Besides, the EC50 – broadly, the midpoint of the concentration-response curve – in the series with A-431 was 0.045 µM.

For `c1ccc(CNc2ncccc2-c2nnc(Nc3ccc4c(c3)OCCO4)o2)nc1`, the IC50 on Tubulin [2] is 0.19 µM; against Tubulin [1], 1.9 µM. In addition, the AUC(0-t) – broadly, exposure summed from dosing to a finite time, without extrapolation to infinity – at 4 h in series [3] amounted to 8.8 µM·h; in [7], 31.2 µM·h. Moreover, the Cmax (commonly the peak of the concentration-time curve) in series [4] worked out at 12.5 µM; in series [6], 3.8 µM. Moreover, the EC50 came out at 0.027 µM in the series on NCI/ADR-RES and 0.016 µM in the series with A-431. In addition, the values for the half-life in series [5] and in series [8] were 2.2 h and 2.7 h, respectively.

The molecule `Fc1ccc(CNc2ncccc2-c2nnc(Nc3ccc4c(c3)OCO4)o2)cc1F` gave an IC50 at Tubulin [1] of 2.2 µM. The molecule also displayed an EC50 in the series with A-431 of 0.051 µM.

On to `c1cnc(NCc2cnccn2)c(-c2nnc(Nc3ccc4c(c3)OCCO4)o2)c1`, for which the IC50 against Tubulin [1] turned out to be 2.2 µM. Also, the response with A-431 was half-maximal at 0.031 µM (EC50).

In turn, `c1cnc(NCc2ccc3c(c2)OCO3)c(-c2nnc(Nc3ccc4c(c3)OCCO4)o2)c1` returned an IC50 against Tubulin [1] of 0.5 µM. In addition, in the series with A-431, the midpoint of the response, the EC50, lay at 0.018 µM.

Take `Fc1ccc(CNc2ncccc2-c2nnc(Nc3ccc4c(c3)OCCO4)o2)cc1`: the IC50 against Tubulin [1] is 5 µM. For the same molecule, in the series on A-431, the EC50 turned out to be 0.06 µM.

In turn, `c1cnc(NCc2ccc3c(c2)OCCO3)c(-c2nnc(Nc3ccc4c(c3)OCCO4)o2)c1` came in with an IC50 at Tubulin [1] of 1.8 µM. Further, the response in the series on A-431 was half-maximal at 0.057 µM (EC50).

Regarding `c1ccc(CNc2ccccc2-c2cnc(Nc3ccc4c(c3)OCCO4)o2)nc1`, the figures for the IC50 at Tubulin [2] and on Tubulin [1] were 0.01 µM and 1.4 µM, respectively. The same molecule displayed a Cmax in series [4] of 4.6 µM. Moreover, the EC50 with NCI/ADR-RES was found to be 0.103 µM; with A-431 it was 0.035 µM. The AUC(0-t) at 4 h in series [7] was 14.4 µM·h. Moreover, in series [8], the half-life (usually the time needed for the level to fall by half in the phase considered) is 2.43 h.

Regarding `c1cnc(NCc2cnccn2)c(-c2nnc(Nc3ccc4c(c3)OCO4)o2)c1`, the midpoint of inhibition against Tubulin [1], the IC50, lay at 9.6 µM. The molecule also displayed an EC50 in the series on A-431 of 0.21 µM.

`Fc1cnc(NCc2ccccn2)c(-c2nnc(Nc3ccc4c(c3)OCCO4)o2)c1` registered an IC50 against Tubulin [1] of 3.4 µM. This molecule also registered an EC50 in the series with A-431 of 0.082 µM.

`FC(F)(F)c1ccc(-c2nnc(Nc3ccc4c(c3)OCCO4)o2)c(NCc2ccccn2)n1` came in with a concentration for half-maximal inhibition (IC50) against Tubulin [1] above 30 µM.

Turning to `c1ccc(CNc2ccncc2-c2nnc(Nc3ccc4c(c3)OCCO4)o2)nc1`, the IC50 at Tubulin [1] is above 30 µM.

Molecule `c1ccc(CNc2ccccc2-c2c[nH]c(Nc3ccc4c(c3)OCCO4)n2)nc1` gave an IC50 against Tubulin [1] above 30 µM.

Regarding `c1ccc(CNc2nccnc2-c2nnc(Nc3ccc4c(c3)OCCO4)o2)nc1`, on Tubulin [1], half-maximal inhibition (IC50) was put at 2 µM. Besides, the EC50 in the series on A-431 was determined as 0.075 µM.

Take `c1cncc(CNc2ncccc2-c2nnc(Nc3ccc4c(c3)OCO4)o2)c1`: on Tubulin [1], the IC50 is 8.8 µM. In addition, in the series on A-431, the EC50 worked out at 0.031 µM.

Consider `c1ccc(CNc2ccccc2-c2nnc(Nc3ccc4c(c3)OCCO4)o2)nc1`, for which the IC50 is 0.39 µM at Tubulin [2] and 1.2 µM against Tubulin [1]. The Cmax in series [4] was 6.4 µM. The results for the EC50 in the series with NCI/ADR-RES and in the series on A-431 were 0.037 µM and 0.014 µM, respectively. Further, the AUC(0-t) at 4 h in series [7] came to 17.2 µM·h. In [8], this molecule had a half-life of 1.5 h.

Consider `COc1cc(Nc2ncccc2-c2n[nH]c(Nc3ccc4c(c3)OCO4)n2)cc(OC)c1`, for which the Cmax in series [4] was determined as 7.3 µM. In addition, the area under the curve AUC(0-t) at 4 h in [7] stood at 13.6 µM·h. This molecule showed a half-life in series [8] of 0.62 h.

Turning to `c1cncc(CNc2ncccc2-c2nnc(Nc3ccc4c(c3)OCCO4)o2)c1`, the IC50 amounted to 0.03 µM on Tubulin [2] and 0.7 µM on Tubulin [1]. The molecule also showed a Cmax in [4] of 6.5 µM. Further, the EC50 amounted to 0.019 µM in the series on NCI/ADR-RES and 0.013 µM in the series with A-431. This molecule displayed an AUC(0-t) at 4 h in [7] of 6.7 µM·h. This molecule also showed a half-life in [8] of 0.8 h.

In turn, `c1cnc(NCC2CCCO2)c(-c2nnc(Nc3ccc4c(c3)OCO4)o2)c1` (centres undefined) displayed an IC50 at Tubulin [1] of 15.5 µM. This molecule also yielded an EC50 in the series on A-431 of 0.33 µM.

On Tubulin [1], `FC1(F)Oc2ccc(Nc3nnc(-c4cccnc4NCc4ccccn4)o3)cc2O1` returned an IC50 of 13.3 µM. This molecule came in with an EC50 in the series on A-431 of 0.78 µM.

Turning to `c1ccc(CNc2ncccc2-c2nnc(Nc3ccc4c(c3)OCO4)o2)nc1`, the IC50 at Tubulin [2] came to 0.03 µM; at Tubulin [1], 1.7 µM. For the same molecule, in [4], the Cmax turned out to be 4.9 µM. Also, the EC50 amounted to 0.256 µM in the series on NCI/ADR-RES and 0.049 µM with A-431. In series [7], this molecule displayed an AUC(0-t) at 4 h of 21.5 µM·h. In series [8], this molecule showed a half-life of 4.1 h.

The molecule `c1ccc(COc2ncccc2-c2nnc(Nc3ccc4c(c3)OCCO4)o2)nc1` returned an IC50 on Tubulin [1] of 18.1 µM. In the series with A-431, this molecule yielded an EC50 of 0.26 µM.

`COc1ccc(Nc2nnc(-c3cccnc3NCc3ccccn3)o2)cc1`: at Tubulin [1], 1.5 µM corresponded to half-maximal inhibition (IC50). For the same molecule, the EC50 in the series on A-431 came out at 0.02 µM.

Turning to `c1ccc(CNc2ccccc2-c2csc(Nc3ccc4c(c3)OCCO4)n2)nc1`, the IC50 at Tubulin [1] was above 30 µM.

Take `CC(=O)O[C@H]1C(=O)[C@@]2(C)[C@H]([C@H](OC(=O)c3ccccc3)[C@]3(O)C[C@H](OC(=O)[C@H](O)[C@@H](NC(=O)c4ccccc4)c4ccccc4)C(C)=C1C3(C)C)[C@]1(OC(C)=O)CO[C@@H]1C[C@@H]2O` [PACLITAXEL]: the EC50 in the series on NCI/ADR-RES was above 10 µM; in the series on A-431, 0.009 µM.

Consider `CS(=O)(=O)Nc1ccc(CNc2ncccc2-c2nnc(Nc3ccc4c(c3)OCCO4)o2)cc1`, for which the IC50 at Tubulin [1] was found to be 2 µM. The molecule further showed an EC50 in the series with A-431 of 0.023 µM.

Consider `c1cnc(NCc2ccncc2)c(-c2nnc(Nc3ccc4c(c3)OCCO4)o2)c1`, for which the midpoint of inhibition on Tubulin [1], the IC50, lay at 29.9 µM. The EC50 in the series with A-431 was 0.018 µM.

In the case of `COc1ccc(CNc2ncccc2-c2nnc(Nc3ccc4c(c3)OCCO4)o2)cc1`, half-maximal inhibition at Tubulin [1] (IC50) was put at 1.6 µM. For the same molecule, in the series on A-431, a half-maximal effect (EC50) was put at 0.023 µM.

Take `CS(=O)(=O)Nc1ccc(CNc2ncccc2-c2nnc(Nc3ccc4c(c3)OCO4)o2)cc1`: half-maximal inhibition at Tubulin [1] (IC50) was put at 3.8 µM. For the same molecule, in the series on A-431, the midpoint of the response, the EC50, lay at 0.071 µM.

In the case of `c1cnc(NCc2ccncc2)c(-c2nnc(Nc3ccc4c(c3)OCO4)o2)c1`, the IC50 on Tubulin [2] was determined as 0.03 µM; against Tubulin [1] it was 1 µM. In series [4], this molecule registered a Cmax of 15.1 µM. Besides, the results for the EC50 in the series on NCI/ADR-RES and in the series on A-431 were 0.0078 µM and 0.02 µM, respectively. In addition, the AUC(0-t) at 4 h in series [7] amounted to 52.6 µM·h. The same molecule had a half-life in [8] of 2.6 h.

As to `c1ccc(CNc2ncncc2-c2nnc(Nc3ccc4c(c3)OCCO4)o2)nc1`, at Tubulin [1], the IC50 was above 30 µM.

`c1cnc(NCC2CCCO2)c(-c2nnc(Nc3ccc4c(c3)OCCO4)o2)c1` (centres undefined): the results for the IC50 on Tubulin [2] and at Tubulin [1] were 0.39 µM and 1.7 µM, respectively. The Cmax in [4] is 16.4 µM. Also, the EC50 in the series with NCI/ADR-RES was 0.128 µM; in the series with A-431, 0.16 µM. Also, the area under the curve AUC(0-t) at 4 h in series [7] is 26.3 µM·h. Also, the half-life in [8] was 0.78 h.

`CN(c1ccc2c(c1)OCCO2)c1nnc(-c2cccnc2NCc2ccccn2)o1` returned an IC50 against Tubulin [1] above 30 µM.

`COc1ccc(/C=C\c2cc(OC)c(OC)c(OC)c2)cc1O` [COMBRETASTATIN A4]: the EC50 worked out at 0.0015 µM in the series with NCI/ADR-RES and 0.0035 µM with A-431.

In the case of `c1ccc(CNc2ccsc2-c2nnc(Nc3ccc4c(c3)OCCO4)o2)nc1`, the IC50 on Tubulin [2] was 0.075 µM; on Tubulin [1], 4.4 µM. Besides, the Cmax in series [4] amounted to 59.2 µM. In addition, the EC50 was 0.046 µM in the series with NCI/ADR-RES and 0.022 µM in the series with A-431. In series [7], this molecule gave an AUC(0-t) at 4 h of 102 µM·h. Further, the half-life in series [8] was 0.75 h.

As to `Fc1ccc(CNc2ncccc2-c2nnc(Nc3ccc4c(c3)OCCO4)o2)cc1F`, 0.7 µM corresponded to half-maximal inhibition against Tubulin [1] (IC50). This molecule also displayed an EC50 in the series with A-431 of 0.015 µM.
